Tests used:
ERK1/ERK2 = experiment: Measurement of Erk occupancy with biotinylated covalent probe I-299 (HT-29); assay type: cell-based; conditions: HT-29 cells
Protocol: Measurement of Erk Occupancy with Biotinylated Covalent Probe
This experiment measured occupancy of the ERK1/ERK2 target by compounds according to the invention. This experiment was conducted using the Mesoscale Discovery test kit (Cat. # N45107B). One day before the assay, cells were split and added at 50,000 cells per well to a flat-bottom 96 well plate in 200 μl of growth medium. The next day, the medium was discarded, 100 μl medium containing test compound was added, and the plate was incubated at 37° C. for 120 minutes. The plate was rinsed once with PBS, and 50 μl lysis buffer with test compound was added. The plate was incubated at 4° C. for 30 min, and 30 μl of lysate was transferred to a plate to capture total and phosphor-Erk. Biotinylated probe 1-299 was diluted in lysis buffer and added to each well to a final concentration of 0.2 μM. The plate was incubated for 2 hr under constant shaking at room temperature. The plate was washed 3 times with MSD wash buffer. To detect the biotinylated probe bonding, tagged streptavidin was added (Mesoscale Discovery, Cat. # R32AD-1) at 1 μg/ml, 25 μl/well, followed by a 60 min incubation under shaking. The plate was washed 3 times, 150 μl MSD Read Buffer (Mesoscale Discovery, Cat. R61TX) was added and the plate was read in a plate reader manufactured by MSD. Percent occupancy by test compound at Erk was calculated by comparing the chemiluminescence readings from treated cells as compared to the chemiluminescence readings in untreated controls (which are defined as 100% probe bonding or 0% test compound occupancy). The amount of covalent probe signal divided by the amount of ERK signal for samples with no test compound treatment represents the maximum probe signal (MPS). In samples treated with test compound prior to covalent probe, the ratio of probe signal to ERK signal (the test probe signal, TPS) was reduced by the degree of target occupancy by the test compound which blocks covalent probe binding. The difference between the MPS and the TPS, divided by the MPS gave the target occupancy by the test compound. This ratio was then expressed as a percent occupancy. Results from this assay are provided in Table A below under the column “Occupancy EC50 (nM) HT-29.”

[1] = system: HT-29 cells (colorectal adenocarcinoma); experiment: Inhibition of cancer cell proliferation, HT-29 (CellTiterGlo, 72 hours); assay type: cell-based; conditions: Homo sapiens
Procedure, shortened: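 HT-29 cells seeded at 3000/well, then treated with 3-fold serial dilutions from a 5,000 nM two-fold solution in serum-free RPMI1640, untreated wells as control, for 72 h at 37° C. CellTiterGlo luminescence converted to cell number via a standard curve; GI50 from percent inhibition versus untreated growth.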

[2] = system: ERK1/2 phosphorylation of p90RSK in HT29 cells; experiment: pRSK MSD Assay in HT29 cells; assay type: cell-based; conditions: Homo sapiens, HT-29, read-out: ERK1/ERK2 PRSK MSD HT29 EC50
Procedure, shortened: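 Serum-starved HT29 cells (0.1% FBS overnight) treated with test compound for 120 min at 37° C, then lysed with protease and phosphatase inhibitors. Phospho-p90RSK quantified by MSD sandwich immunoassay: RSK capture antibody, phospho-RSK detection antibody plus Sulfo-tagged antibody, electrochemiluminescence read.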

[3] = system: HCT116 cells (colorectal carcinoma); experiment: Inhibition of cancer cell proliferation, HCT116 (CellTiterGlo, 72 hours); assay type: cell-based; conditions: Homo sapiens, HCT-116
Protocol: Measurement of Inhibition of Cancer Cell Proliferation (HCT116/Colorectal Carcinoma)
The following protocol used a HCT116 cell line, which cell line is a model for colorectal carcinoma. HCT116 cells were split and 3000 cells in 100 μl of growth medium were added per well of a flat-bottom 96-well plate. A two-fold test compound solution in serum-free RPM1640 was made, starting at 5,000 nM. Then, 3-fold serial dilutions were made across the plate from well 1 to well 11. Well 12, the last well in a row on the plate, was left as untreated control. 100 μl compound solutions were then transferred to the wells, so the total volume of media was 200 μl per well. Plates were returned to a 37° C. incubator, and the cells were cultured for 72 hours. To measure cell proliferation after 72 hours, media was discarded from the plates, 50 μl/well of fresh medium was added, and 50 μl CellTiterGlo solution was added (Promega Cat#G7573). The plate was covered with a dark lid and incubated for 10 min. A white sealing tape was applied to the bottom of the plate, and the plate was read in a luminescence plate reader. […] 50 μl CellTiterGlo was added per well, and the plate was read in a luminescence plate reader after 10 min. The reading was plotted vs. cell number to generate a standard curve and the equation of the curve fit. The compound-treated sample luminescence readings were converted to cell numbers using the curve-fit equation. The percent of inhibition, using untreated control as 100% growth, was then calculated. GI50 was then calculated by GraphPad Prism.

[4] = system: A375 cells (malignant melanoma); experiment: Inhibition of cancer cell proliferation, A375 (CellTiterGlo, 72 hours); assay type: cell-based; conditions: Homo sapiens, A-375
Procedure, shortened: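 A375 melanoma cells, 3000/well, exposed 72 h at 37 °C to compound in 3-fold serial dilutions (solution added as 2× stock starting at 5,000 nM in serum-free DMEM). CellTiterGlo luminescence converted to cell number via standard curve; % inhibition vs untreated control, GI50 from curve fit.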

Erk1 = target: T1, Erk1 (Homo sapiens, UniProt P27361); experiment: Protein Mass Modification Assay (intact protein MALDI, 60 min, 10-fold excess of compound); assay type: binding
T1 construct: purchased Millipore 14-439
Procedure, shortened: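 Human Erk1 was incubated 60 min at room temperature with a 10-fold molar excess of compound, then analysed as intact protein by MALDI with sinapinic acid matrix. The centroid mass shift versus untreated protein was divided by compound molecular weight to give percent modified protein.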

MEK1 activated ERK1 = target: T2, MEK1 activated ERK1 (Homo sapiens, UniProt P27361); experiment: Omnia continuous-read kinase assay for potency against MEK1 activated ERK1; assay type: biochemical; conditions: MEK1 activated ERK1, ATP at KM; read-out: ERK1 Omnia WT ATP KM IC50
T2 construct: purchased Millipore (Billerica, Mass.) 14-439-K
Procedure, shortened: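 Apparent IC50 came from initial reaction slopes (RFU vs time) plotted against log inhibitor with a variable-slope fit. Reactions were started with ERK1 (4 nM final) added to 50 μM ATP, roughly at its appKM, and 10 μM Sox-conjugated ST17 peptide in 20 mM Tris pH 7.5, 5 mM MgCl2. Fluorescence was monitored every 71 seconds.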

T1 sequence (P27361 whole entry): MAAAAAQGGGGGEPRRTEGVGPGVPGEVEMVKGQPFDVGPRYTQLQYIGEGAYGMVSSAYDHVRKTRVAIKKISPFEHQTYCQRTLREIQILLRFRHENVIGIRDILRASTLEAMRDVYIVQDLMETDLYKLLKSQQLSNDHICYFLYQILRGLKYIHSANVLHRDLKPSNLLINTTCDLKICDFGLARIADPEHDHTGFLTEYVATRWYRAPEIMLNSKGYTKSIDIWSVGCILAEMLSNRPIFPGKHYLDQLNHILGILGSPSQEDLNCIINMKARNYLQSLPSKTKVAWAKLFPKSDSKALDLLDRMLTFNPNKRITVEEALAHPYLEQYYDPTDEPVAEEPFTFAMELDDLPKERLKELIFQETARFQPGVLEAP
T2 sequence (P27361 whole entry): as above

Row | SMILES | EC50 (ERK1/ERK2) | GI50 [1] | EC50 [2] | GI50 [3] | GI50 [4] | ERK1 Mass Mod (%) (Erk1) | IC50 (MEK1 activated ERK1)
1 | C=CC(=O)Nc1ccccc1Nc1nc(Nc2cc(C(N)=O)c(F)cc2C)ncc1Cl [Compound I-214, 5-((4-((2-acrylamidophenyl)amino)-5-chloropyrimidin-2-yl)amino)-2-fluoro-4-methylbenzamide] | < 100 nM | < 100 nM | < 100 nM | – | – | – | –
2 | C=CC(=O)Nc1ccccc1Nc1nc(N[C@H]2CCCN(C(=O)CO)C2)ncc1Cl [Compound I-123, (S)—N-(2-((5-chloro-2-((1-(2-hydroxyacetyl)piperidin-3-yl)amino)pyrimidin-4-yl)amino)phenyl)acrylamide] | – | < 100 nM | < 100 nM | < 100 nM | < 100 nM | – | –
3 | C=CC(=O)Nc1cc(C)ccc1Nc1nc(N[C@H]2CCCN(C(C)=O)C2)ncc1C(F)(F)F [Compound I-19, (S)—N-(2-((2-((1-Acetylpiperidin-3-yl)amino)-5-(trifluoromethyl)pyrimidin-4-yl)amino)-5-methylphenyl)acrylamide] | – | < 100 nM | < 100 nM | < 100 nM | < 100 nM | – | –
4 | C=CC(=O)Nc1cc(F)ccc1Nc1nc(Nc2cc(C(N)=O)ccc2C)ncc1Cl [Compound I-206, 3-((4-((2-acrylamido-4-fluorophenyl)amino)-5-chloropyrimidin-2-yl)amino)-4-methylbenzamide] | < 100 nM | < 100 nM | 101 to 500 nM | – | – | – | –
5 | C=C(F)C(=O)Nc1ccccc1Nc1nc(N[C@H]2CCCN(C(C)=O)C2)ncc1C(F)(F)F [Compound I-55, (S)—N-(2-((2-((1-Acetylpiperidin-3-yl)amino)-5-(trifluoromethyl)pyrimidin-4-yl)amino)phenyl)-2-fluoroacrylamide] | – | < 100 nM | 101 to 500 nM | 101 to 500 nM | < 100 nM | – | –
6 | C=CC(=O)Nc1cc(C)ccc1Nc1nc(N[C@H]2CCCN(C(C)=O)C2)ncc1Cl [Compound I-139, (S)—N-(2-((2-((1-acetylpiperidin-3-yl)amino)-5-chloropyrimidin-4-yl)amino)-5-methylphenyl)acrylamide] | – | < 100 nM | < 100 nM | < 100 nM | < 100 nM | E (a mass modification of ≧70%) | –
7 | C=CC(=O)Nc1cc(C)ccc1Nc1nc(Nc2cc(C(C)=O)ccc2C)ncc1Cl [Compound I-239, N-(2-((2-((5-acetyl-2-methylphenyl)amino)-5-chloropyrimidin-4-yl)amino)-5-methylphenyl)acrylamide] | – | 101 to 500 nM | – | 501 to 999 nM | 101 to 500 nM | E (key: E: a mass modification of ≧70%; F: a mass modification of 31-69%; G: a mass modification ≦30%) | 101 to 500 nM
8 | C=CC(=O)Nc1ccccc1Nc1nc(N[C@H]2CCCN(C(=O)C=O)C2)ncc1C(F)(F)F [Compound I-52, (S)—N-(2-((2-((1-(2-Oxoacetyl)piperidin-3-yl)amino)-5-(trifluoromethyl)pyrimidin-4-yl)amino)phenyl)acrylamide] | – | 101 to 500 nM | – | > 1000 nM | 101 to 500 nM | – | 101 to 500 nM
9 | C=CC(=O)Nc1cc(C)ccc1Nc1nc(Nc2cc(OC)ncc2C)ncc1Cl [Compound I-241, N-(2-((5-chloro-2-((2-methoxy-5-methylpyridin-4-yl)amino)pyrimidin-4-yl)amino)-5-methylphenyl)acrylamide] | – | < 100 nM | < 100 nM | 101 to 500 nM | 101 to 500 nM | – | –
10 | CCC(=O)Nc1ccccc1Nc1nc(N[C@H]2CCCN(C(=O)CO)C2)ncc1Cl [Compound I-311, (S)—N-(2-((5-chloro-2-((1-(2-hydroxyacetyl)piperidin-3-yl)amino)pyrimidin-4-yl)amino)phenyl)propionamide] | – | 501 to 999 nM | 501 to 999 nM | > 1000 nM | > 1000 nM | – | –
11 | C=CC(=O)Nc1ccccc1Nc1nc(Nc2cncc(OC)c2)ncc1C(F)(F)F [Compound I-86, N-(2-((2-((5-Methoxypyridin-3-yl)amino)-5-(trifluoromethyl)pyrimidin-4-yl)amino)phenyl)acrylamide] | – | < 100 nM | < 100 nM | < 100 nM | < 100 nM | E (a mass modification of ≧70%) | –

Now from value to molecule, other results behind:

Row | EC50 (ERK1/ERK2) | GI50 [1] | EC50 [2] | GI50 [3] | GI50 [4] | SMILES | ERK1 Mass Mod (%) (Erk1) | IC50 (MEK1 activated ERK1)
12 | < 100 nM | < 100 nM | < 100 nM | – | – | C=CC(=O)Nc1ccccc1Nc1nc(Nc2cc(S(N)(=O)=O)ccc2C)ncc1Cl [Compound I-205, N-(2-((5-chloro-2-((2-methyl-5-sulfamoylphenyl)amino)pyrimidin-4-yl)amino)phenyl)acrylamide] | – | –
13 | – | < 100 nM | 101 to 500 nM | 501 to 999 nM | < 100 nM | C=CC(=O)Nc1cc(OC)ccc1Nc1nc(Nc2cc(C(N)=O)ccc2C)ncc1Cl [Compound I-237, 3-((4-((2-acrylamido-4-methoxyphenyl)amino)-5-chloropyrimidin-2-yl)amino)-4-methylbenzamide] | – | –
14 | < 100 nM | 101 to 500 nM | < 100 nM | – | – | C=CC(=O)Nc1ccccc1Nc1nc(Nc2cc(C(N)=O)ccc2C)ncc1Cl [Compound I-319, 3-(4-(2-acrylamidophenylamino)-5-chloropyrimidin-2-ylamino)-4-methylbenzamide] | – | –
15 | – | < 100 nM | < 100 nM | < 100 nM | < 100 nM | C=CC(=O)Nc1cc(C)ccc1Nc1nc(N[C@H]2CCCN(C(=O)CO)C2)ncc1C(F)(F)F [Compound I-20, (S)—N-(2-((2-((1-(2-Hydroxyacetyl)piperidin-3-yl)amino)-5-(trifluoromethyl)pyrimidin-4-yl)amino)-5-methylphenyl)acrylamide] | – | –
16 | – | < 100 nM | < 100 nM | 101 to 500 nM | < 100 nM | C=CC(=O)Nc1ccccc1Nc1nc(Nc2cc(OC)ncc2C)ncc1Cl [Compound I-240, N-(2-((5-chloro-2-((2-methoxy-5-methylpyridin-4-yl)amino)pyrimidin-4-yl)amino)phenyl)acrylamide] | – | –
17 | – | < 100 nM | < 100 nM | < 100 nM | < 100 nM | C=CC(=O)Nc1ccccc1Nc1nc(N[C@H]2CCCN(C(C)=O)C2)ncc1C(F)(F)F [Compound I-10, (S)—N-(2-(2-(1-acetylpiperidin-3-ylamino)-5-(trifluoromethyl)pyrimidin-4-ylamino)phenyl)acrylamide] | – | –

From patent US9561228B2 (Celgene Avilomics Research, Inc., priority 2013, dated 2017)
